Results from patent US20240262808A1, “XANTHINE OXIDASE INHIBITOR” (JIANGSU ATOM BIOSCIENCE AND PHARMACEUTICAL CO., LTD., priority 2021, published 2024).

How the values were obtained:
Xanthine Oxidase (XO) = target: T1, Xanthine Oxidase (XO) (Bos taurus, UniProt P80457); experiment: Xanthine oxidase activity inhibition test (XO/HRP double enzyme coupling, Ampliflu Red fluorescence); assay type: biochemical; conditions: 30 min preincubation and 30 min reaction at 30° C., pH 7.5; read-out: Xanthine oxidase inhibitor activity IC50
T1 construct: purchased Sigma-Aldrich Co., LLC
T1 sequence (P80457 2-1332 limits assumed): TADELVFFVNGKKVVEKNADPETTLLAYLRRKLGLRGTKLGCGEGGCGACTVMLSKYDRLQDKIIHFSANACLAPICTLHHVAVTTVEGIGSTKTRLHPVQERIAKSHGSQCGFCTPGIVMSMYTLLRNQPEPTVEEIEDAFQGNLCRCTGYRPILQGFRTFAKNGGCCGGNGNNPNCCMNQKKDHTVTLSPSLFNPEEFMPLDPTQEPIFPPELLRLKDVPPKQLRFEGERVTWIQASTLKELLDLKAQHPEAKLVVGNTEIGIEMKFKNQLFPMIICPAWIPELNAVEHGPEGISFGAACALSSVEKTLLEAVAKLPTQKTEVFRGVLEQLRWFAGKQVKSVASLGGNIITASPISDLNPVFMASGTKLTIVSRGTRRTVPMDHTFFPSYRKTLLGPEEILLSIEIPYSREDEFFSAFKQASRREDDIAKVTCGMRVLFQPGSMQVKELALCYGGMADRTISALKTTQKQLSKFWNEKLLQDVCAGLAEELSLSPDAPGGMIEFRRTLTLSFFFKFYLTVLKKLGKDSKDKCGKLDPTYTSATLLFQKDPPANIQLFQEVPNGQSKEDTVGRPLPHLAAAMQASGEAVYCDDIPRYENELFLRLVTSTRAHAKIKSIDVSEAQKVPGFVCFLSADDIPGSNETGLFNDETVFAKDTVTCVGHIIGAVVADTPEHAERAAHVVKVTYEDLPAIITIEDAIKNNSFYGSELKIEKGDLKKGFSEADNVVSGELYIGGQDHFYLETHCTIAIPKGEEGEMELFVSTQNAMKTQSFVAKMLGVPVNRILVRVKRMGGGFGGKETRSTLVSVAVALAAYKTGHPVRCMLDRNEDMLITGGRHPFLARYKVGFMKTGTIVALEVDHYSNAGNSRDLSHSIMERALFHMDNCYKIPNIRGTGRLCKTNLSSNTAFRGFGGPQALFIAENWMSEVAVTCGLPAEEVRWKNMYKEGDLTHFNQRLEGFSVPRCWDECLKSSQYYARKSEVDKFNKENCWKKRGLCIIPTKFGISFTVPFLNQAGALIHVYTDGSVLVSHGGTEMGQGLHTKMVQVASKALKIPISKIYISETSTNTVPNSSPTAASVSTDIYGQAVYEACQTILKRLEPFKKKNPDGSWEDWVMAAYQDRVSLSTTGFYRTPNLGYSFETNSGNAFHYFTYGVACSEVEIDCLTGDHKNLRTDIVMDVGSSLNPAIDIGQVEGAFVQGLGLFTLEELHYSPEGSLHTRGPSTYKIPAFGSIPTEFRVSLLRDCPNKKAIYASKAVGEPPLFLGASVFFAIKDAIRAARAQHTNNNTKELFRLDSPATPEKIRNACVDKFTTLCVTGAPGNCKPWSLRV
Description: A double enzyme coupling reaction of Xanthine Oxidase (XO) and Horseradish Peroxidase (HRP) and their substrates was used to test the activity inhibition of xanthine oxidase. First, xanthine oxidase oxidized hypoxanthine to produce xanthine and hydrogen peroxide, and further oxidized xanthine to produce uric acid and hydrogen peroxide. […] The fluorescence intensity of resorufin was determined by fluorescence enzyme spectrometer in direct proportion to xanthine oxidase activity.
In 96-well polypropylene reaction plate, the test compound was diluted into a 200-fold concentration of solution with DMSO through 2.5-fold serial dilution, and further diluted in ultra-pure water to obtain a series of 3-fold concentration of diluted solution.
Reaction solution A: 6 mU/mL xanthine oxidase solution was prepared in 0.1M Tris-HCl (pH7.5) buffer solution.
Reaction solution B: a mixture of 0.6 U/mL horseradish peroxidase solution, 0.15 mM Ampliflu Red and 0.3 mM hypoxanthine in 0.1M Tris-HCl (pH 7.5) buffer solution. The solution was protected from light at 4° C. and was prepared when it was ready for use.
9 μL reaction solution A was mixed with 3-fold concentration serial dilution solution of 9 μL test compound in a 96-well test plate, placed on a flat plate oscillator, and mixed at 30° C. at 100 rpm for 30 min. Then 9 μL reaction solution B was added. The enzyme reaction was carried out at 30° C. for 30 minutes. The fluorescence intensity at excitation light 530 nm and emission light 590 nm was measured by a microplate reader. The fluorescence intensity of the control without xanthine oxidase was 0%, and that of the control without the test compound was 100%.

[1] = tested on: rats with hyperuricemia induced by potassium oxonate; experiment: Treatment of hyperuricemia in rats induced by potassium oxonate, serum uric acid; assay type: in vivo, SD rat; conditions: for Uric acid 1 h: 1 h after potassium oxonate; for Uric acid 3 h: 3 h after potassium oxonate; for Uric acid 5 h: 5 h after potassium oxonate; for Uric acid 0 h: before potassium oxonate injection
Description: Compounds 15, 24 and 38 were white powder, and compound 57 was light yellow powder, which was ground with 0.5% CMC-Na before use and prepared into suspension with corresponding concentrations (0.2 and 0.4 mg/mL) for gavage.
SD rat, SPF grade, male, weighing 180-220 g, purchased from Shanghai Slake Experimental Animal Co., Ltd., production license number: SCXK (Hu) 2017-0005, quality certificate number: 20170005050604.
72 SD rats, male, weighed about 200-230 g after one week of acclimatization. […] Drugs for each group were prepared into suspension with corresponding concentration, and the administration volume was 0.5 mL/100 g.
After purchased and fed for acclimatization, the rats in each group were fasted for 12 h, and the model was established by intraperitoneal injection with potassium oxonate at the dose of 300 mg/kg, and each of the test drug groups were administrated once by gavage after model establishment. Blood samples were collected from posterior orbital venous plexus before and 1, 3 and 5 h after potassium oxonate injection, centrifugated at 3500 rpm for 10 min, and 30 μL serum was taken to determine uric acid levels at each time point.
Then in two consecutive days, rat models were established with potassium oxonate by intraperitoneal injection at a dose of 300 mg/kg every day, and each test drug group was administrated once by gavage after model establishment. On the third day of administration, the rats were fasted for 12 h, and with the same test method on the first day, blood samples were collected from the posterior orbital venous plexus before and 1, 3 and 5 h after potassium oxonate injection, centrifuged at 3500 rpm for 10 min, and 30 μL serum was taken to determine the uric acid level at each time point.
The measurement data of each experiment were expressed as (mean)±s (standard deviation). ANOVA-Dunnett T test was used to investigate the significance between groups, and P<0.05 was used as a significant index, P<0.01 was used as a very significant index.

[2] = 1-day administration, 1 mg/kg gavage
[3] = 1-day administration, 2 mg/kg gavage
[4] = 3-day administration, 1 mg/kg gavage
[5] = 3-day administration, 2 mg/kg gavage
[6] = 1-day administration, 1 and 2 mg/kg groups, at 1, 3 and 5 h after model establishment

| SMILES | IC50 (Xanthine Oxidase (XO)) | Uric acid 1 h [1, 2] | Uric acid 3 h [1, 2] | Uric acid 5 h [1, 2] | Uric acid 0 h [1, 2] | Uric acid 1 h [1, 3] | Uric acid 3 h [1, 3] | Uric acid 5 h [1, 3] | Uric acid 0 h [1, 3] | Uric acid 1 h [1, 4] | Uric acid 3 h [1, 4] | Uric acid 5 h [1, 4] | Uric acid 0 h [1, 4] | Uric acid 1 h [1, 5] | Uric acid 3 h [1, 5] | Uric acid 5 h [1, 5] | Uric acid 0 h [1, 5] | Serum uric acid level compared with model group [1, 6] | other results |
| --- | --- | --- | --- | --- | --- | --- | --- | --- | --- | --- | --- | --- | --- | --- | --- | --- | --- | --- | --- |
| CC(C)n1cc(C#N)c2cc(-n3ncc(C(=O)O)n3)ccc21 [Compound 15, 2-(3-cyano-1-isopropyl-1H-indole-5-yl)-2H-1,2,3-triazole-4-formic acid] | 1.84 nM | 104.3 ± 20.3 µmol/L | 121.6 ± 12.2 µmol/L | 118.4 ± 15.3 µmol/L | 72.0 ± 6.7 µmol/L | 98.1 ± 6.3 µmol/L | 130.7 ± 11.5 µmol/L | 109.7 ± 22.5 µmol/L | 74.1 ± 10.3 µmol/L | 78.4 ± 12.1 µmol/L | 166.1 ± 37.5 µmol/L | 100.0 ± 12.5 µmol/L | 70.9 ± 12.8 µmol/L | 88.2 ± 21.3 µmol/L | 139.8 ± 32.7 µmol/L | 97.6 ± 21.0 µmol/L | 64.1 ± 4.8 µmol/L | – | Serum uric acid level compared with model group ([1]; 1-day administration, 2 mg/kg group, at 1 h after model establishment, P<0.01): significantly decreased |
| CC(C)n1nc(C#N)c2cc(-n3ncc(C(=O)O)n3)ccc21 [Compound 24, 2-(3-cyano-1-isopropyl-1H-indazole-5-yl)-2H-1,2,3-triazole-4-formic acid] | 3.65 nM | 96.2 ± 9.3 µmol/L | 131.0 ± 18.9 µmol/L | 96.8 ± 13.6 µmol/L | 65.3 ± 5.8 µmol/L | 96.8 ± 5.4 µmol/L | 126.4 ± 14.4 µmol/L | 105.1 ± 16.6 µmol/L | 77.6 ± 9.2 µmol/L | 105.5 ± 12.7 µmol/L | 155.3 ± 38.2 µmol/L | 102.6 ± 8.3 µmol/L | 87.8 ± 16.2 µmol/L | 97.2 ± 27.5 µmol/L | 104.0 ± 5.8 µmol/L | 97.0 ± 14.6 µmol/L | 90.4 ± 9.1 µmol/L | – | Serum uric acid level compared with model group ([1]; 1-day administration, 1 and 2 mg/kg groups, at 1 h after model establishment, P<0.01): significantly decreased; Serum uric acid level compared with model group ([1]; 3-day administration, 2 mg/kg group, at 3 h after model establishment, P<0.01): significantly decreased |
| CC(C)n1nc(C#N)c2cc(-n3cc(C(=O)O)cn3)ccc21 [Compound 38, 1-(3-cyano-1-isopropyl-1H-indazole-5-yl)-1H-pyrazole-4-formic acid] | 3.24 nM | 70.6 ± 7.7 µmol/L | 74.6 ± 19.6 µmol/L | 64.3 ± 10.6 µmol/L | 75.6 ± 6.8 µmol/L | 66.5 ± 7.5 µmol/L | 77.4 ± 9.2 µmol/L | 56.8 ± 4.0 µmol/L | 73.1 ± 6.7 µmol/L | 62.1 ± 14.1 µmol/L | 69.4 ± 16.1 µmol/L | 55.1 ± 5.8 µmol/L | 61.0 ± 5.7 µmol/L | 54.4 ± 5.1 µmol/L | 73.1 ± 9.4 µmol/L | 58.1 ± 9.6 µmol/L | 60.9 ± 8.1 µmol/L | significantly decreased | Serum uric acid level compared with model group ([1]; 3-day administration, 1 and 2 mg/kg groups, at 1, 3 and 5 h after model establishment): significantly decreased |
| CC(C)n1nc(C#N)c2cc(-c3cc(C(=O)O)ccn3)ccc21 [Compound 57, 2-(3-cyano-1-isopropyl-1H-indazole-5-yl) isonicotinic acid] | 2.89 nM | 74.7 ± 11.3 µmol/L | 99.5 ± 12.4 µmol/L | 85.7 ± 8.5 µmol/L | 71.2 ± 8.3 µmol/L | 64.0 ± 13.5 µmol/L | 107.4 ± 12.5 µmol/L | 94.8 ± 6.4 µmol/L | 74.5 ± 8.9 µmol/L | 57.5 ± 9.3 µmol/L | 75.3 ± 6.3 µmol/L | 90.0 ± 5.9 µmol/L | 70.8 ± 8.6 µmol/L | 63.6 ± 11.7 µmol/L | 75.2 ± 16.9 µmol/L | 81.1 ± 8.0 µmol/L | 72.7 ± 15.6 µmol/L | significantly decreased | Serum uric acid level compared with model group ([1]; 3-day administration, 1 and 2 mg/kg groups, at 1 and 3 h after model establishment, P<0.01): significantly decreased |
